Data reported in patent publication US9302999B2, “Substituted triazoles as herbicides” (E. I. DU PONT DE NEMOURS AND COMPANY, priority 2012, dated 2016).

How the values were obtained:
Format in all cases: in vivo
[1] = system: morningglory (Ipomoea spp.); test: Test A pre-/postemergence: morningglory; details: for Morningglory plant response rating: Postemergence; for Plant response rating, Morningglory: Preemergence
Procedure, shortened: (§1)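 Each species received preemergence soil-directed spraying and, at the same time, postemergence treatment of seedlings 2–10 cm tall. Formulation: non-phytotoxic solvent mixture including surfactant. Response assessed visually about ten days on, relative to untreated controls, 0–100 scale.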

rice (Oryza sativa) = test: Test C flooded paddy test: rice; details: scale 0 to 100 (0 no effect, 100 complete control)
Procedure, shortened: (§2)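 Plants at 2-leaf stage in pots flooded 3 cm above soil; compounds applied directly into the paddy water, depth maintained. Visual rating against controls after 13–15 days in greenhouse, scale 0 (no effect) to 100 (complete control).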

[2] = system: foxtail, giant (giant foxtail, Setaria faberii); test: Test A pre-/postemergence: foxtail, giant; details: for Foxtail, Giant plant response rating: Postemergence; for Plant response rating, Foxtail, Giant: Preemergence
Procedure, shortened: as §1

[3] = system: crabgrass, large (large crabgrass, Digitaria sanguinalis); test: Test A pre-/postemergence: crabgrass, large; details: for Crabgrass, Large plant response rating: Postemergence; for Plant response rating, Crabgrass, Large: Preemergence
Procedure, shortened: as §1

[4] = system: sedge, umbrella (small-flower umbrella sedge, Cyperus difformis); test: Test C flooded paddy test: sedge, umbrella; details: scale 0 to 100 (0 no effect, 100 complete control)
Procedure, shortened: as §2

[5] = system: barnyardgrass (Echinochloa crus-galli); test: Test A pre-/postemergence: barnyardgrass; details: for Barnyardgrass plant response rating: Postemergence; for Plant response rating, Barnyardgrass: Preemergence
Procedure, shortened: as §1

[6] = system: wheat (Triticum aestivum); test: Test A pre-/postemergence: wheat; details: for Wheat plant response rating: Postemergence; for Plant response rating, Wheat: Preemergence
Procedure, shortened: as §1

[7] = system: velvetleaf (Abutilon theophrasti); test: Test A pre-/postemergence: velvetleaf; details: for Velvetleaf plant response rating: Postemergence; for Plant response rating, Velvetleaf: Preemergence
Procedure, shortened: as §1

[8] = system: barnyardgrass (Echinochloa crus-galli); test: Test C flooded paddy test: barnyardgrass; details: scale 0 to 100 (0 no effect, 100 complete control)
Procedure, shortened: as §2

corn (Zea mays) = test: Test A pre-/postemergence: corn; details: for Corn plant response rating: Postemergence; for Plant response rating, Corn: Preemergence
Procedure, shortened: as §1

[9] = system: pigweed (Amaranthus retroflexus); test: Test A pre-/postemergence: pigweed; details: for Pigweed plant response rating: Postemergence; for Plant response rating, Pigweed: Preemergence
Procedure, shortened: as §1

[10] = system: ducksalad (Heteranthera limosa); test: Test C flooded paddy test: ducksalad; details: scale 0 to 100 (0 no effect, 100 complete control)
Procedure, shortened: as §2

[11] = 125 g ai/ha, 0 to 100 scale, 0 is no effect, 100 is complete control
[12] = 500 g ai/ha, visual rating on 0 to 100 scale (0 no effect, 100 complete control), approximately ten days
[13] = 125 g ai/ha, 0 to 100 scale (0 no effect, 100 complete control)
[14] = 500 g ai/ha, 0 to 100 scale, 0 is no effect, 100 is complete control
[15] = Flood (flooded paddy test), 62 g ai/ha, visual rating after 13 to 15 days
[16] = Flood (flooded paddy test), 125 g ai/ha, visual rating after 13 to 15 days
[17] = Flood (flooded paddy test), 250 g ai/ha, visual rating after 13 to 15 days

## Cc1nn(-c2cccc([N+](=O)[O-])c2)nc1C(=O)c1cccc(C(F)(F)F)c1 [Compound 62]
[1]; [11]
  Morningglory plant response rating: 0
[1]; [12]
  Morningglory plant response rating: 0
[1]; [13]
  Plant response rating, Morningglory: 0
[1]; [14]
  Plant response rating, Morningglory: 0
Rice (Oryza sativa); [15]
  Plant response rating, Rice: 0
Rice (Oryza sativa); [16]
  Plant response rating, Rice: 0
Rice (Oryza sativa); [17]
  Plant response rating, Rice: 0
Rice (Oryza sativa); Flood, 31 g ai/ha
  Plant response rating, Rice: 0
[2]; [11]
  Foxtail, Giant plant response rating: 0
[2]; [12]
  Foxtail, Giant plant response rating: 0
[2]; [13]
  Plant response rating, Foxtail, Giant: 0
[2]; [14]
  Plant response rating, Foxtail, Giant: 0
[3]; [11]
  Crabgrass, Large plant response rating: 0
[3]; [12]
  Crabgrass, Large plant response rating: 0
[3]; [13]
  Plant response rating, Crabgrass, Large: 0
[3]; [14]
  Plant response rating, Crabgrass, Large: 0
[4]; [15]
  Plant response rating, Sedge, Umbrella: 0
[4]; [16]
  Plant response rating, Sedge, Umbrella: 0
[4]; [17]
  Plant response rating, Sedge, Umbrella: 0
[4]; Flood, 31 g ai/ha
  Plant response rating, Sedge, Umbrella: 0
[5]; [11]
  Barnyardgrass plant response rating: 0
[5]; [12]
  Barnyardgrass plant response rating: 10
[5]; [13]
  Plant response rating, Barnyardgrass: 0
[5]; [14]
  Plant response rating, Barnyardgrass: 0
[6]; [11]
  Wheat plant response rating: 0
[6]; [12]
  Wheat plant response rating: 0
[6]; [13]
  Plant response rating, Wheat: 0
[6]; [14]
  Plant response rating, Wheat: 0
[7]; [11]
  Velvetleaf plant response rating: 0
[7]; [12]
  Velvetleaf plant response rating: 0
[7]; [13]
  Plant response rating, Velvetleaf: 0
[7]; [14]
  Plant response rating, Velvetleaf: 0
[8]; [15]
  Plant response rating, Barnyardgrass: 0
[8]; [16]
  Plant response rating, Barnyardgrass: 0
[8]; [17]
  Plant response rating, Barnyardgrass: 0
[8]; Flood, 31 g ai/ha
  Plant response rating, Barnyardgrass: 0
Corn (Zea mays); [11]
  Corn plant response rating: 0
Corn (Zea mays); [12]
  Corn plant response rating: 0
Corn (Zea mays); [13]
  Plant response rating, Corn: 0
Corn (Zea mays); [14]
  Plant response rating, Corn: 0
[9]; [11]
  Pigweed plant response rating: 0
[9]; [12]
  Pigweed plant response rating: 10
[9]; [13]
  Plant response rating, Pigweed: 0
[9]; [14]
  Plant response rating, Pigweed: 0
[10]; [15]
  Plant response rating, Ducksalad: 0
[10]; [16]
  Plant response rating, Ducksalad: 0
[10]; [17]
  Plant response rating, Ducksalad: 0
[10]; Flood, 31 g ai/ha
  Plant response rating, Ducksalad: 0

## Cc1nn(-c2ccccc2[N+](=O)[O-])nc1C(=O)c1cccc(C(F)(F)F)c1 [Compound 63]
[1]; [11]
  Morningglory plant response rating: 0
[1]; [12]
  Morningglory plant response rating: 0
[1]; [13]
  Plant response rating, Morningglory: 0
[1]; [14]
  Plant response rating, Morningglory: 0
Rice (Oryza sativa); [15]
  Plant response rating, Rice: 0
Rice (Oryza sativa); [16]
  Plant response rating, Rice: 0
Rice (Oryza sativa); [17]
  Plant response rating, Rice: 0
Rice (Oryza sativa); Flood, 31 g ai/ha
  Plant response rating, Rice: 0
[2]; [11]
  Foxtail, Giant plant response rating: 0
[2]; [12]
  Foxtail, Giant plant response rating: 0
[2]; [13]
  Plant response rating, Foxtail, Giant: 0
[2]; [14]
  Plant response rating, Foxtail, Giant: 0
[3]; [11]
  Crabgrass, Large plant response rating: 0
[3]; [12]
  Crabgrass, Large plant response rating: 0
[3]; [13]
  Plant response rating, Crabgrass, Large: 0
[3]; [14]
  Plant response rating, Crabgrass, Large: 0
[4]; [15]
  Plant response rating, Sedge, Umbrella: 0
[4]; [16]
  Plant response rating, Sedge, Umbrella: 0
[4]; [17]
  Plant response rating, Sedge, Umbrella: 0
[4]; Flood, 31 g ai/ha
  Plant response rating, Sedge, Umbrella: 0
[5]; [11]
  Barnyardgrass plant response rating: 0
[5]; [12]
  Barnyardgrass plant response rating: 0
[5]; [13]
  Plant response rating, Barnyardgrass: 0
[5]; [14]
  Plant response rating, Barnyardgrass: 0
[6]; [11]
  Wheat plant response rating: 0
[6]; [12]
  Wheat plant response rating: 0
[6]; [13]
  Plant response rating, Wheat: 0
[6]; [14]
  Plant response rating, Wheat: 0
[7]; [11]
  Velvetleaf plant response rating: 0
[7]; [12]
  Velvetleaf plant response rating: 0
[7]; [13]
  Plant response rating, Velvetleaf: 0
[7]; [14]
  Plant response rating, Velvetleaf: 0
[8]; [15]
  Plant response rating, Barnyardgrass: 0
[8]; [16]
  Plant response rating, Barnyardgrass: 0
[8]; [17]
  Plant response rating, Barnyardgrass: 0
[8]; Flood, 31 g ai/ha
  Plant response rating, Barnyardgrass: 0
Corn (Zea mays); [11]
  Corn plant response rating: 0
Corn (Zea mays); [12]
  Corn plant response rating: 0
Corn (Zea mays); [13]
  Plant response rating, Corn: 0
Corn (Zea mays); [14]
  Plant response rating, Corn: 0
[9]; [11]
  Pigweed plant response rating: 0
[9]; [12]
  Pigweed plant response rating: 10
[9]; [13]
  Plant response rating, Pigweed: 0
[9]; [14]
  Plant response rating, Pigweed: 0
[10]; [15]
  Plant response rating, Ducksalad: 0
[10]; [16]
  Plant response rating, Ducksalad: 0
[10]; [17]
  Plant response rating, Ducksalad: 0
[10]; Flood, 31 g ai/ha
  Plant response rating, Ducksalad: 0
